Tests used:
HCV genotype 1a replicon = assay: HCV replicon assay, genotype 1a (cell ELISA for replicon-encoded NS3/4A); format: cell-based; details: Hepatitis C virus, 96 h, read-out: 1a IC50
Protocol: (§1) Measurement of inhibition by compounds was performed using the HCV replicon system. Several different replicons encoding different HCV genotypes or mutations were used. In addition, potency measurements were made using different formats of the replicon assay, including different ways of measurements and different plating formats. See Jan M. Vrolijk et al., A replicons-based bioassay for the measurement of interferons in patients with chronic hepatitis C, 110 J. V[…] 201 (2003); Steven S. Carroll et al., Inhibition of Hepatitis C Virus RNA Replication by 2′-Modified Nucleoside Analogs, 278(14) J. BIOLOGICAL CHEMISTRY 11979 (2003). However, the underlying principles are common to all of these determinations, and are outlined below.
(§2) Stable neomycin phosphotransferase encoding replicons-harboring cell lines were used, so all cell lines were maintained under G418 selection prior to the assay. Potency was determined using a cell ELISA assay with an antibody to the replicons encoded NS3/4a protease. See Caterina Trozzi et al., In Vitro Selection and Characterization of Hepatitis C Virus Serine Protease Variants Resistant to an Active-Site Peptide Inhibitor, 77(6) J. Virol. 3669 (2003). To initiate an assay, replicon cells were plated in the presence of a dilution series of test compound in the absence of G418. Typically, the assays were performed in a 96-well plate formate for manual operation, or a 384-well plate format for automated assay. Replicon cells and compound were incubated for 96 hours. At the end of the assay, cells were washed free of media and compound, and the cells were then lysed. RNA was quantified indirectly through detection of replicon-encoded NS3/4A protein levels, through an ELISA-based assay with an antibody specific for NS3/4A. IC50 determinations were calculated as a percentage of a DMSO control by fitting the data to a four-parameter fit function and the data obtained is provided in the table below.
(§3) Data for selected compounds of the present invention was obtained for genotypes 1a and 1b using this method and is provided in the table below: […]

HCV genotype 1b replicon = assay: HCV replicon assay, genotype 1b (cell ELISA for replicon-encoded NS3/4A); format: cell-based; details: Hepatitis C virus, 96 h, read-out: 1b IC50
Protocol: as §1, §2, §3

Compound | IC50 (HCV genotype 1a replicon) [nM] | IC50 (HCV genotype 1b replicon) [nM]
CNC(=O)c1c(C2=CCCC2)oc2cc(N(C)S(C)(=O)=O)c(-c3ccc4c(n3)-c3cc5c(F)cccc5n3CO4)cc12 [Compound 45] | 6.1 | 6.4
CNC(=O)c1c(C2=CCCC2)oc2cc(N(C)S(C)(=O)=O)c(-c3ncc4c(n3)-c3cc5ccccc5n3CO4)cc12 [Compound 46] | 15 | 13
CNC(=O)c1c(C2=CCCC2)oc2cc(N(C)S(C)(=O)=O)c(-c3ncc4c(n3)-c3cc5c(F)cccc5n3CO4)cc12 [Compound 47] | 5.9 | 8.8
CNC(=O)c1c(C23CCCC2C3)oc2cc(N(C)S(C)(=O)=O)c(-c3ccc4c(n3)-c3cc5c(F)cccc5n3CO4)cc12 (stereo not shown) [Compound 48, 2-(bicyclo[3.1.0]hexan-1-yl)-5-(11-fluoro-6H-pyrido[2′,3′:5,6][1,3]oxazino[3,4-a]indol-2-yl)-N-methyl-6-(N-methylmethylsulfonamido)benzofuran-3-carboxamide] | 28 | 34
CNC(=O)c1c(C2CC2(C)C)oc2cc(N(C)S(C)(=O)=O)c(-c3ccc4c(n3)-c3cc5c(F)cccc5n3CO4)cc12 (stereo not shown) [Compound 49] | 27 | 22
CNC(=O)c1c(C2CC2(F)F)oc2cc(N(C)S(C)(=O)=O)c(-c3ccc4c(n3)-c3cc5c(F)cccc5n3CO4)cc12 (stereo not shown) [Compound 50, 2-(2,2-difluorocyclopropyl)-5-(11-fluoro-6H-pyrido[2′,3′:5,6][1,3]oxazino[3,4-a]indol-2-yl)-N-methyl-6-(N-methylmethylsulfonamido)benzofuran-3-carboxamide] | 22 | 38
CNC(=O)c1c(C2CC2)oc2cc(N(C)S(C)(=O)=O)c(-c3cc4c(cn3)OC(CO)n3c-4cc4c(F)cccc43)cc12 (stereo not shown) [Compound 52] | 52 | 23
CNC(=O)c1c(C2CC2)oc2cc(N(C)S(C)(=O)=O)c(-c3ncc4c(n3)-c3cc5c(F)cccc5n3CO4)cc12 [Compound 53] | 33 | 30
CNC(=O)c1oc2cc(N(C)S(C)(=O)=O)c(-c3ccc4c(n3)-c3cc5c(F)cccc5n3CO4)cc2c1C(=O)NC [Compound 54, 5-(11-fluoro-6H-pyrido[2′,3′:5,6][1,3]oxazino[3,4-a]indol-2-yl)-N2,N3-dimethyl-6-(N-methylmethylsulfonamido)benzofuran-2,3-dicarboxamide] | 4.3 | 7.1
CNC(=O)c1c(C(=O)N(C)C)oc2cc(N(C)S(C)(=O)=O)c(-c3ccc4c(n3)-c3cc5c(F)cccc5n3CO4)cc12 [Compound 55] | 4 | 6.4
CNC(=O)c1c(C(=O)N2CCC2)oc2cc(N(C)S(C)(=O)=O)c(-c3ccc4c(n3)-c3cc5c(F)cccc5n3CO4)cc12 [Compound 56] | 5 | 11
CNC(=O)c1c(C(=O)N2CCOCC2)oc2cc(N(C)S(C)(=O)=O)c(-c3ccc4c(n3)-c3cc5c(F)cccc5n3CO4)cc12 [Compound 57] | 232 | 135
CNC(=O)c1c(-c2nnc(C)o2)oc2cc(N(C)S(C)(=O)=O)c(-c3ccc4c(n3)-c3cc5c(F)cccc5n3CO4)cc12 [Compound 58, 5-(11-fluoro-6H-pyrido[2′,3′:5,6][1,3]oxazino[3,4-a]indol-2-yl)-N-methyl-2-(5-methyl-1,3,4-oxadiazol-2-yl)-6-(N-methylmethylsulfonamido)benzofuran-3-carboxamide] | 8.1 | 7.9
CNC(=O)c1c(/C(C)=N/OC)oc2cc(N(C)S(C)(=O)=O)c(-c3ccc4c(n3)-c3cc5c(F)cccc5n3CO4)cc12 [Compound 59, 5-(11-fluoro-6H-pyrido[2′,3′:5,6][1,3]oxazino[3,4-a]indol-2-yl)-2-(1-(methoxyimino)ethyl)-N-methyl-6-(N-methylmethylsulfonamido)benzofuran-3-carboxamide] | 34 | 13
